Data on 2 compounds can be found in paper PMC9220351, “Evaluation of a Conformationally Constrained Indole Carboxamide as a Potential Efflux Pump Inhibitor in Pseudomonas aeruginosa” (Antibiotics, 2022).

Data set [1] deals with P. aeruginosa K2415 (mexXY-oprM overexpressed). In words: MIC / potentiation assay, strain K2415. Particulars: Pseudomonas aeruginosa, read-out: MICs K2415 (↑mexXY-oprM). In kind it is cell-based, Pseudomonas aeruginosa. The text has this:
P. aeruginosa ATCC 27853 was obtained from the American Type Culture Collection (ATCC; Manassas, VA, USA). P. aeruginosa multidrug-resistant isolates were obtained from the CDC and FDA Antibiotic Resistance Isolate Bank (Atlanta, GA, USA). P. aeruginosa DA7232 (gyrA-T83I, parC-S80L) was a kind gift from Prof. Dan I. Andersson, Uppsala University, Uppsala, Sweden, and has been characterized elsewhere. P. aeruginosa strains K767 (WT), K1455 (mexAB-oprM overexpressed), K2415 (mexXY-oprM overexpressed), and K3698 (oprM∆) were obtained from Prof. Keith Poole, Queen’s University, Kingston, Ontario, Canada and have been characterized elsewhere. Bacterial cells were grown in cation-adjusted Mueller Hinton (CAMH) media, brain heart infusion broth (BHI), or tryptic soy agar (TSA) plates were all obtained from Becton, Dickinson, and Company (BD; Franklin Lakes, NJ, USA). Aztreonam, ceftazidime, moxifloxacin, levofloxacin, minocycline, tigecycline, chloramphenicol, nitrocefin, and imipenem were purchased from TOKU-E (Bellingham, WA, USA). Azithromycin was purchased from Tokyo Chemical Industry (Portland, OR, USA). Cotrimoxazole was purchased from Toronto Research Chemicals (Toronto, ON, Canada). Doxycycline and polymyxin B were purchased from Sigma-Aldrich (St. Louis, MO, USA). Ethidium bromide (EtBr) and glucose were purchased from VWR (Radnor, PA, USA). MC-04,124 and TXA01182 were synthesized at TAXIS Pharmaceuticals. Carbonyl cyanide 3-chlorophenylhydrazone (CCCP) was purchased from Enzo Life Sciences (Farmingdale, NY, USA). DiOC2 (3) and propidium iodide were obtained from Thermo Fisher Scientific (Waltham, MA, USA).
MIC assays were performed as described previously.

Data set [2] relates to P. aeruginosa ATCC 27853 inner membrane. The data set is described as follows: Flow cytometry propidium iodide (PI) assay for inner membrane permeabilization. In kind it is cell-based, Pseudomonas aeruginosa. Particulars: no inner membrane permeabilization below this concentration.
Protocol: Membrane disruption was assayed with two approaches: (1) a flow cytometry-based propidium iodide (PI) assay to monitor inner membrane permeabilization, and (2) a nitrocefin (NCF) assay to monitor outer membrane permeabilization. NCF is a chromogenic cephalosporin that changes from yellow to red when the amide bond in the β-lactam ring is hydrolyzed by a β-lactamase. The rate of hydrolysis in intact cells is slow, as it is limited by the rate of diffusion of periplasmic β-lactamase across the outer membrane. However, in the presence of an agent that permeabilizes the outer membrane, the rate of hydrolysis will increase [33]. […] Polymyxin B was used as a positive control (Figure 2B). […] Cells whose membranes remain intact exclude PI and remain non-fluorescent, while cells with compromised membrane integrity allow PI to enter and bind to DNA, resulting in fluorescence.
A flow cytometry assay used for assessing potential inner membranes permeabilization of P. aeruginosa bacterial cells to PI was conducted using the LIVE/DEAD BacLight Kit from Invitrogen (Waltham, MA, USA). […] Intracellular PI fluorescence was detected by flow cytometry using a CytoFlex (Beckman Coulter Inc., Brea, CA, USA). […] For each sample, the fluorescence of 10,000 individual bacterial cells was measured, and the percent of cells that stained positive for PI fluorescence was calculated.
Another data set concerns the target CYP2C19 (Homo sapiens, UniProt P33261). In words: CYP inhibition. In kind it is in vitro ADME. The conditions noted are these: read-out: CYP Inhibition IC50, CYP 2C19.
Data set [3] can be described thus: Metabolic stability in human liver microsomes. In kind it is in vitro ADME. Here is the method:
The metabolic stability of TXA09155 was determined in human, mouse, and rat liver microsomes by Eurofins (St. Charles, MO, USA) using the substrate depletion method (in vitro half-life (t1/2) method). Quantification was performed by LC/MS/MS. In this assay, depletion of the parent compound is measured over time to determine the compound’s in vitro t1/2 and hepatic extraction ratios (ER). This is used to predict metabolic clearance. […] This assay utilizes electrophysiology measurements on the electric current passing through the hERG channel heterologously expressed in a stable CHO cell line. Channels are open by a hERG-specific voltage protocol, and the compound effects are directly characterized by their block of the hERG current. The assay is performed on an automated platform, Q-Patch.
For orientation: Microsomes from liver hold many membrane-bound enzymes, among them those of drug oxidation.

Another data set concerns the target CYP2D6 (Homo sapiens, UniProt P10635). In words: CYP inhibition. In kind it is in vitro ADME. The conditions noted are these: read-out: CYP Inhibition IC50, CYP 2D6.

Some results are limits rather than exact numbers.

Sequence of CYP2C19 (P33261 whole entry): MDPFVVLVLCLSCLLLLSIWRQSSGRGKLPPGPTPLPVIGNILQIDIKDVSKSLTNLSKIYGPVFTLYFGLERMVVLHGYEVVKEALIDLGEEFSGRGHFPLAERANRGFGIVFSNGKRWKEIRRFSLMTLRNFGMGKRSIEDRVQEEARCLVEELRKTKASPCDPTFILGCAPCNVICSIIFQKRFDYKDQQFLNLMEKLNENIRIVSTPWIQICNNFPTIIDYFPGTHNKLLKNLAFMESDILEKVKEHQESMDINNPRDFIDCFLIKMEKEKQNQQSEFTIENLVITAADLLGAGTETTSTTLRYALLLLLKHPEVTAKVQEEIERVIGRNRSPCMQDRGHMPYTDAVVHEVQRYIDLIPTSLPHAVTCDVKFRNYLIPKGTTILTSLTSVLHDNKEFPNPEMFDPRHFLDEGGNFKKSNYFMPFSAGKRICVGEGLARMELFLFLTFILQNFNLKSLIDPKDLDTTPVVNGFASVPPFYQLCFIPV
Sequence of CYP2D6 (P10635 whole entry): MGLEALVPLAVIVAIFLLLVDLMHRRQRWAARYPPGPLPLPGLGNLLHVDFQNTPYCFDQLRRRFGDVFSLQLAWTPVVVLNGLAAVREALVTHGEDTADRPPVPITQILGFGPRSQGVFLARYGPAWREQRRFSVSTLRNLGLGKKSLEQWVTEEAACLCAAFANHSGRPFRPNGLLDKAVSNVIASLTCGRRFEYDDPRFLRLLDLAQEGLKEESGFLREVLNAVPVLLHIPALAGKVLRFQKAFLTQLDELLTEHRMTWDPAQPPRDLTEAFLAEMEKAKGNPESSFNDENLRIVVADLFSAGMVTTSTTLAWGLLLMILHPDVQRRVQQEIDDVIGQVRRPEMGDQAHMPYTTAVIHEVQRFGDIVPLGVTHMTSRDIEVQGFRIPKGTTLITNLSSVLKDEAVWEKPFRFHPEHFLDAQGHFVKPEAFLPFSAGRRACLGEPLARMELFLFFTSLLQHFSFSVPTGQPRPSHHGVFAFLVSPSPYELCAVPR

For `C[C@H]1COc2c(N3CCN(C)CC3)c(F)cc3c(=O)c(C(=O)O)cn1c23` [Levofloxacin], in data set [1], the MIC turned out to be 4 µg/mL.

Regarding `Cl.NC[C@@H]1CN[C@H](CNC(=O)c2cc3ccc(-c4ccc(F)cc4)cc3[nH]2)C1` [TXA09155, N-(((2S,4R)-4-(aminomethyl)pyrrolidine-2-yl)methyl)-6-(4-fluorophenyl)-1H-indole-2-carboxamide hydrochloride salt], the “concentrations without inner membrane disruption (basal PI fluorescence)” value in data set [2] was less than 50 µg/mL. Also, the concentration for half-maximal inhibition (IC50) on CYP2C19 was greater than 100 µM; on CYP2D6, 67.2 µM. Further, the “HLM and RLM Metabolic Stability (HLM)” value in data set [3] is listed as greater than 60%.

As a reminder, the IC50 is the concentration that gives 50% inhibition.
